Results taken from patent publication US12187728B2 (Raze Therapeutics, Inc., priority 2015, dated 2025).

target: T1, Human MTHFD2 (Homo sapiens, UniProt P13995); assay: MTHFD2 Activity Assay (dehydrogenase activity, diaphorase/resazurin coupled fluorescence); type: biochemical; conditions: inhibitory activity (IC50 and/or binding constant); 0.2 nM MTHFD2, 11 concentrations
T1 construct: residues 36-350 in Uniport ID P13995; His6 (N); made in house; host or cells: E. coli
T1 sequence (P13995 36-350): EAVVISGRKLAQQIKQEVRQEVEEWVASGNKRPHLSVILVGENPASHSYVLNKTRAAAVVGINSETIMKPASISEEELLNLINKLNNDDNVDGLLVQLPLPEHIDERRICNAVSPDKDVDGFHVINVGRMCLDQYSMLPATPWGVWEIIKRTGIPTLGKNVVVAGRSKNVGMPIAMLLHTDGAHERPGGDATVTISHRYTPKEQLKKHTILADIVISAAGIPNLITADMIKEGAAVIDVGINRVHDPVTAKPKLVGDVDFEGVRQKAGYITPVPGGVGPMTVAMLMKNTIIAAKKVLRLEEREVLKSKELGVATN
Outline: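 His6-tagged MTHFD2 (res. 36-350), E. coli-expressed, at 0.2 nM preincubated with compound 15 min in Hepes pH 8.0/MgCl2/KH2PO4 buffer; 70 μM CH2-THF, 1 mM NAD+ added with resazurin/diaphorase, 30 min, EDTA stop. Resorufin fluorescence (ex 525/em 598); IC50 from 11-point 4-parameter fit.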

Structure (SMILES) | IC50
Cn1c(N[C@H]2C[C@@H](C(=O)O)C2)nc2c1c(=O)n(Cc1ccc(Cl)c(Cl)c1)c(=O)n2C [Example 259, (±)-(cis)-3-(1-(3,4-dichlorobenzyl)-3,7-dimethyl-2,6-dioxo-2,3,6,7-tetrahydro-1H-purin-8-ylamino)cyclobutanecarboxylic acid] | 10 to 1000 nM
Cn1c(NC2CCCC(C(=O)O)C2)nc2c1c(=O)n(Cc1ccc3cc[nH]c3c1)c(=O)n2C (centres unmarked) [Example 260, 3-(1-((1H-indol-6-yl)methyl)-3,7-dimethyl-2,6-dioxo-2,3,6,7-tetrahydro-1H-purin-8-ylamino)cyclohexanecarboxylic acid] | 10 to 1000 nM
Cn1c(N[C@H]2C[C@@H](CO)C2)nc2c1c(=O)n(Cc1ccc(Cl)c(Cl)c1)c(=O)n2C [Example 261, (±)-1-(3,4-dichlorobenzyl)-8-((cis)-3-(hydroxymethyl)cyclobutylamino)-3,7-dimethyl-1H-purine-2,6(3H,7H)-dione] | 10 to 1000 nM
Cn1c(N[C@@H]2CC[C@@H](O)C2)nc2c(=O)n(Cc3ccc(Cl)c(Cl)c3)c(=O)n(C)c21 [Example 262, 1-(3,4-dichlorobenzyl)-8-((1R,3R)-3-hydroxycyclopentylamino)-3,9-dimethyl-1H-purine-2,6(3H,9H)-dione] | > 10000 nM
Cn1cnc2c1c(=O)n(Cc1ccc3cc[nH]c3c1)c(=O)n2C [Example 263, 1-((1H-indol-6-yl)methyl)-3,7-dimethyl-1H-purine-2,6(3H,7H)-dione] | 5000 to 10000 nM
Cn1c(N[C@H]2CC[C@@H](C(=O)O)CC2)nc2c1c(=O)n(Cc1ccc(Cl)c(Cl)c1)c(=O)n2C [Example 264, (±)-(cis)-4-((1-(3,4-dichlorobenzyl)-3,7-dimethyl-2,6-dioxo-2,3,6,7-tetrahydro-1H-purin-8-yl)amino)cyclohexanecarboxylic acid] | 10 to 1000 nM
CC(O)C1CCC(Nc2nc3c(c(=O)n(Cc4ccc(Cl)c(Cl)c4)c(=O)n3C)n2C)C1 (centres unmarked) [Example 265, 1-(3,4-dichlorobenzyl)-8-(3-(1-hydroxyethyl)cyclopentylamino)-3,7-dimethyl-1H-purine-2,6(3H,7H)-dione] | 10 to 1000 nM
Cn1c(N[C@H]2C[C@H](C(=O)O)C2)nc2c1c(=O)n(Cc1ccc(Cl)c(Cl)c1)c(=O)n2C [Example 266] | 10 to 1000 nM
COCC1CCC(Nc2nc3c(c(=O)n(Cc4ccc(Cl)c(Cl)c4)c(=O)n3C)n2C)C1 (centres unmarked) [Example 267, 1-(3,4-dichlorobenzyl)-8-(3-(methoxymethyl)cyclopentylamino)-3,7-dimethyl-1H-purine-2,6(3H,7H)-dione] | 1000 to 5000 nM
Cn1c(N[C@H]2C[C@H](CO)C2)nc2c1c(=O)n(Cc1ccc(Cl)c(Cl)c1)c(=O)n2C [Example 268] | 10 to 1000 nM
Cn1c(Nc2ccc(C(=O)O)cc2)nc2c1c(=O)n(Cc1ccc(Cl)c(Cl)c1)c(=O)n2C [Example 269, 4-[[1-[(3,4-dichlorophenyl)methyl]-3,7-dimethyl-2,6-dioxo-purin-8-yl]amino]benzoic acid] | 10 to 1000 nM
Cn1c(C(O)C2CCC(C(=O)O)CC2)nc2c1c(=O)n(Cc1ccc(Cl)c(Cl)c1)c(=O)n2C (centres unmarked) [Example 270, 4-((1-(3,4-dichlorobenzyl)-3,7-dimethyl-2,6-dioxo-2,3,6,7-tetrahydro-1H-purin-8-yl)(hydroxy)methyl)cyclohexanecarboxylic acid] | 1000 to 5000 nM
Cn1c(NC2CC2)nc2c1c(=O)n(Cc1ccc(Cl)c(Cl)c1)c(=O)n2C [Example 271, 8-(cyclopropylamino)-1-[(3,4-dichlorophenyl)methyl]-3,7-dimethyl-purine-2,6-dione] | 10 to 1000 nM
Cn1c(N[C@H]2CC[C@H](C(=O)O)CC2)nc2c1c(=O)n(Cc1ccc(Cl)c(Cl)c1)c(=O)n2C [Example 272, (±)-trans-4-[[1-[(3,4-dichlorophenyl)methyl]-3,7-dimethyl-2,6-dioxo-purin-8-yl]amino]cyclohexanecarboxylic acid] | 10 to 1000 nM
COCCNc1nc2c(c(=O)n(Cc3ccc(Cl)c(Cl)c3)c(=O)n2C)n1C [Example 273, 1-[(3,4-dichlorophenyl)methyl]-8-(2-methoxyethylamino)-3,7-dimethyl-purine-2,6-dione] | 1000 to 5000 nM
CC(=O)Nc1nc2c(c(=O)n(Cc3ccc(Cl)c(Cl)c3)c(=O)n2C)n1C [Example 274, N-[1-[(3,4-dichlorophenyl)methyl]-3,7-dimethyl-2,6-dioxo-purin-8-yl]acetamide] | 1000 to 5000 nM

Structure (SMILES) | IC50
Cn1c(N[C@@H]2CC[C@H](CO)C2)nc2c1c(=O)n(Cc1ccc(Cl)c(Cl)c1)c(=O)n2C [Example 276, 1-(3,4-dichlorobenzyl)-8-((1R,3S)-3-(hydroxymethyl)cyclopentylamino)-3,7-dimethyl-1H-purine-2,6(3H,7H)-dione] | 10 to 1000 nM
Cn1c(Nc2ccnc(CCC(=O)O)c2)nc2c1c(=O)n(Cc1ccc(Cl)c(Cl)c1)c(=O)n2C [Example 277, 3-(4-(1-(3,4-dichlorobenzyl)-3,7-dimethyl-2,6-dioxo-2,3,6,7-tetrahydro-1H-purin-8-ylamino)pyridin-2-yl)propanoic acid] | 10 to 1000 nM
Cn1c(NCC(F)(F)F)nc2c1c(=O)n(Cc1ccc(Cl)c(Cl)c1)c(=O)n2C [Example 278, 1-[(3,4-dichlorophenyl)methyl]-3,7-dimethyl-8-(2,2,2-trifluoroethylamino)purine-2,6-dione] | 10 to 1000 nM
Cn1c(Nc2cc(CCC(=O)O)ccn2)nc2c1c(=O)n(Cc1ccc(Cl)c(Cl)c1)c(=O)n2C [Example 281, 3-(2-(1-(3,4-dichlorobenzyl)-3,7-dimethyl-2,6-dioxo-2,3,6,7-tetrahydro-1H-purin-8-ylamino)pyridin-4-yl)propanoic acid] | 1000 to 5000 nM
Cn1c(Nc2cccc(CCC(=O)O)n2)nc2c1c(=O)n(Cc1ccc(Cl)c(Cl)c1)c(=O)n2C [Example 282, 3-(6-(1-(3,4-dichlorobenzyl)-3,7-dimethyl-2,6-dioxo-2,3,6,7-tetrahydro-1H-purin-8-ylamino)pyridin-2-yl)propanoic acid] | 10 to 1000 nM
Cn1c(Nc2ccnc(CCC(N)=O)c2)nc2c1c(=O)n(Cc1ccc(Cl)c(Cl)c1)c(=O)n2C [Example 283, 3-(4-(1-(3,4-dichlorobenzyl)-3,7-dimethyl-2,6-dioxo-2,3,6,7-tetrahydro-1H-purin-8-ylamino)pyridin-2-yl)propanamide] | 10 to 1000 nM
Cn1c(Nc2ccncc2)nc2c1c(=O)n(Cc1cc3c(Cl)cccc3[nH]1)c(=O)n2C [Example 285, 1-((4-chloro-1H-indol-2-yl)methyl)-3,7-dimethyl-8-(pyridin-4-ylamino)-1H-purine-2,6(3H,7H)-dione] | 10 to 1000 nM
Cn1c(Nc2cccc(C(=O)O)c2)nc2c1c(=O)n(Cc1ccc(Cl)c(Cl)c1)c(=O)n2C [Example 286, 3-((1-(3,4-dichlorobenzyl)-3,7-dimethyl-2,6-dioxo-2,3,6,7-tetrahydro-1H-purin-8-yl)amino)benzoic acid] | 10 to 1000 nM
Cn1c(Nc2cccc(CC(=O)O)c2)nc2c1c(=O)n(Cc1ccc(Cl)c(Cl)c1)c(=O)n2C [Example 287, 2-(3-((1-(3,4-dichlorobenzyl)-3,7-dimethyl-2,6-dioxo-2,3,6,7-tetrahydro-1H-purin-8-yl)amino)phenyl)acetic acid] | 10 to 1000 nM
Cn1c(Nc2ccc(CC(=O)O)cc2)nc2c1c(=O)n(Cc1ccc(Cl)c(Cl)c1)c(=O)n2C [Example 288, 2-(4-((1-(3,4-dichlorobenzyl)-3,7-dimethyl-2,6-dioxo-2,3,6,7-tetrahydro-1H-purin-8-yl)amino)phenyl)acetic acid] | 10 to 1000 nM
Cn1c(N[C@H]2C[C@H](C(=O)O)C2)nc2c1c(=O)n(Cc1cc3ccccc3[nH]1)c(=O)n2C [Example 289, (1R,3R)-3-(1-((1H-indol-2-yl)methyl)-3,7-dimethyl-2,6-dioxo-2,3,6,7-tetrahydro-1H-purin-8-ylamino)cyclobutanecarboxylic acid] | 10 to 1000 nM
Cn1cnc2c1c(=O)n(Cc1cc3cccnc3[nH]1)c(=O)n2C [Example 290, 1-((1H-pyrrolo[2,3-b]pyridin-2-yl)methyl)-3,7-dimethyl-1H-purine-2,6(3H,7H)-dione] | 5000 to 10000 nM
Cn1c(Nc2cccc(CCC(=O)O)c2)nc2c1c(=O)n(Cc1ccc(Cl)c(Cl)c1)c(=O)n2C [Example 291, 3-(3-(1-(3,4-dichlorobenzyl)-3,7-dimethyl-2,6-dioxo-2,3,6,7-tetrahydro-1H-purin-8-ylamino)phenyl)propanoic acid] | 10 to 1000 nM
Cn1c(Nc2cccc(CCC(N)=O)n2)nc2c1c(=O)n(Cc1ccc(Cl)c(Cl)c1)c(=O)n2C [Example 292, 3-(6-(1-(3,4-dichlorobenzyl)-3,7-dimethyl-2,6-dioxo-2,3,6,7-tetrahydro-1H-purin-8-ylamino)pyridin-2-yl)propanamide] | 10 to 1000 nM
Cn1c(Nc2cccc(CCCO)n2)nc2c1c(=O)n(Cc1ccc(Cl)c(Cl)c1)c(=O)n2C [Example 293, 1-(3,4-dichlorobenzyl)-8-(6-(3-hydroxypropyl)pyridin-2-ylamino)-3,7-dimethyl-1H-purine-2,6(3H,7H)-dione] | 10 to 1000 nM
Cn1c(Nc2cccc(CCC(=O)O)n2)nc2c1c(=O)n(Cc1cc3c(Cl)cccc3[nH]1)c(=O)n2C [Example 294, 3-(6-(1-((4-chloro-1H-indol-2-yl)methyl)-3,7-dimethyl-2,6-dioxo-2,3,6,7-tetrahydro-1H-purin-8-ylamino)pyridin-2-yl)propanoic acid] | 10 to 1000 nM
